# Assay results taken from patent publication US20240175069A1, “BIOSYSTEM FOR PESTICIDE DETECTION” (priority 2022, published 2024).
# Experiments:
# [1] = target: T1, CYP2B11 (Canis lupus familiaris, UniProt P24460); assay: Pesticides screening using CYP2B11 inhibition assay (BOMCC fluorescence, Example 4); conditions: 400 μg/L pesticide; 5 pmol/mL CYP2B11; 3 μM BOMCC
# T1 sequence (P24460 1-494): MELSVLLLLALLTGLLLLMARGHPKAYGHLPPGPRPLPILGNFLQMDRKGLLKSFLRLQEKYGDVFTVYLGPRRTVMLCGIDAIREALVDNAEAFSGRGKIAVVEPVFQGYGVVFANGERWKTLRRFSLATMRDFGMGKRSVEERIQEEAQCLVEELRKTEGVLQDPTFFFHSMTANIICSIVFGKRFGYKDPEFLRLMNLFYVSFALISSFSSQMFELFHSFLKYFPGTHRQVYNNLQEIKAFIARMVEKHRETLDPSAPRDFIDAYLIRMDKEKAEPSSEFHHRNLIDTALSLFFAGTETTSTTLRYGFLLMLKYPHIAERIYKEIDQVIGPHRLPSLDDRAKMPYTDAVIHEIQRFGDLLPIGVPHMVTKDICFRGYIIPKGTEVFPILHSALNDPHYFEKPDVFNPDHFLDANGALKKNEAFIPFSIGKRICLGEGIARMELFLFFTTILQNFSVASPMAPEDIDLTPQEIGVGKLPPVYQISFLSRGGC
# Procedure: This assay was performed in a 96-well plate by adding 50 μL of chemical standard of pesticides in duplicate, previously prepared in assay buffer with 5% acetonitrile. Enzyme mixture consisted of 5 pmol/mL CYP2B11 (Cypex Limited) in the assay buffer: 75 mM potassium phosphate supplemented with 5 mM MgCl2, pH=8.0, containing 333 mM Glucose-6-phosphate and 30 U/mL Glucose-6-phosphate dehydrogenase. After preparation, 50 μL of enzyme mixture were added to each plate and incubated for 10 minutes at 37° C. After incubation, 10 μL of a substrate mixture containing 30 μM NADP^+ and 3 μM BOMCC in the phosphate buffer was added to the wells. The plate was incubated for 60 minutes at 37° C., and the fluorescence was monitored using 410/460 nm as excitation and emission wavelengths, respectively. A blank sample containing buffer solution was measured in same conditions and used to calculate the inhibition of the enzyme activity that was associated with the presence of pesticides concentration.
# [2] = target: T2, CYP2B10 (Mus musculus, UniProt P12791); assay: Pesticides screening using CYP2B10 inhibition assay (MOBFC fluorescence, Example 1); assay type: biochemical; set-up: purchased Cypex Limited; bacterial membranes, E. coli by own knowledge; conditions: 15 pmol/mL CYP2B10, 10 μM MOBFC, 10% acetonitrile standard; for I (%) at 200 μg/L: 200 μg/L pesticide; for I (%) at 400 μg/L: 400 μg/L pesticide
# T2 sequence (P12791 1-491 isoform P12791-2 L55F/V178I/R251K/K253R/N280H/A281T/V298A/H308R/T321A/S349T/L376M/Q412H/S444N): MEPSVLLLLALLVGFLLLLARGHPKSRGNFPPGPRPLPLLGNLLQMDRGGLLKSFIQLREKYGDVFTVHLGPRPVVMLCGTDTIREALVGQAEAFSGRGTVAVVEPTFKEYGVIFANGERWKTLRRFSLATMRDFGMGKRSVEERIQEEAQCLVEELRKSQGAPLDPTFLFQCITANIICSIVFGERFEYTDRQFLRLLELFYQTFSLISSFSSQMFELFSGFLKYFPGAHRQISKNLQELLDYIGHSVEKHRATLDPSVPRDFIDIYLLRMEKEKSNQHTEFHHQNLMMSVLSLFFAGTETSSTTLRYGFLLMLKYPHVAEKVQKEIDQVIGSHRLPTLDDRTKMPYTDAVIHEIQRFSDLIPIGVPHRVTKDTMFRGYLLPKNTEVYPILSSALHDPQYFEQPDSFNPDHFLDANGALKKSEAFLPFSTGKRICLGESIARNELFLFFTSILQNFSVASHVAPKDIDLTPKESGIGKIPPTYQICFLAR
# Procedure: An inhibition assay was performed using the enzyme CYP2B10 by contacting it to 200 μg/L and 400 μg/L of chlorpyrifos-ethyl, chlorpyrifos-methyl, prochloraz, diazinon and dicofol.
# [3] = target: T2, CYP2B10; assay: CYP2B10 assay on extracts of spiked mushrooms, validation (Example 7); conditions: mushroom spiked at 0.01 mg/kg, extracted; 15 pmol/mL CYP2B10; 10 μM MOBFC; triplicates over seven days
# Procedure: The bioassay was performed in 500 μL tubes and in triplicate. 50 μL of extract was added to the tubes. Enzyme mixture was prepared following the protocols provided by the manufacturer (Cypex Limited) and consisted of 15 pmol/ml of CYP2B10 Bactosomes in the assay buffer: 75 mM potassium phosphate supplemented with 5 mM MgCl2, pH=8.0, containing 333 mM Glucose-6-phosphate and 30 U/mL Glucose-6-phosphate dehydrogenase. After the preparation, 50 μL of enzyme mixture were added to each tube. After reach room temperature 10 μL of substrate mixture (10 μM MOBFC and 30 μM NADP^+ diluted in potassium phosphate buffer 50 mM) was added to each tube. The tubes were incubated 60 minutes at 37° C. and when time passed, fluorescence signal was measured with a fluorometric reader, 370 nm and 520 nm were the excitation and emission wavelengths, respectively. A blank sample, buffer solution, was measured at the same time and the reduction of the signal, inhibition of enzyme activity, was calculated and associated with the presence of pesticide molecules.
# The validation was carried out during seven days, comparing the signal obtained for triplicate samples of blank and doped mushroom.
# [4] = target: T2, CYP2B10; assay: CYP2B10 inhibition assay with MOBFC/MOFC reporter substrate mixes (Example 3); assay type: biochemical; set-up: purchased Cypex Limited; bacterial membranes, E. coli by own knowledge; conditions: 400 μg/L dicofol
# Procedure: The enzyme CYP2B10 was exposed to 400 μg/L of dicofol pesticide, and the inhibition percentage was registered when reporter substrate concentration and composition was changed.
# [5] = target: T1, CYP2B11; assay: Effect of dimethoate in CYP2B11 assay (BOMCC fluorescence, Example 2); assay type: biochemical; set-up: purchased Cypex Limited; conditions: dog, CYP2B11 enzyme (Cypex Limited), pH 8, probe BOMCC (3 μM in substrate mixture); 2 mg/L dimethoate; 10 pmol/mL CYP2B11; 3 μM BOMCC
# Description: Considering the inhibition percentage determined, it is possible to confirm that CYP2B11 enzyme is susceptible to be inhibited by dimethoate pesticide.
# [6] = target: T3, Human CYP2B6 (Homo sapiens, UniProt P20813); assay: Metrafenone inhibition assay on human CYP2B6 (Example 5); assay type: biochemical; conditions: 500 μg/L metrafenone; CYP2B6 2.5 pmol/mL; BOMCC 3 μM
# T3 construct: purchased Thermofisher Scientific; host or cells: baculosomes (microsomes of baculovirus-infected insect cells, by own knowledge)
# T3 sequence (P20813 1-491): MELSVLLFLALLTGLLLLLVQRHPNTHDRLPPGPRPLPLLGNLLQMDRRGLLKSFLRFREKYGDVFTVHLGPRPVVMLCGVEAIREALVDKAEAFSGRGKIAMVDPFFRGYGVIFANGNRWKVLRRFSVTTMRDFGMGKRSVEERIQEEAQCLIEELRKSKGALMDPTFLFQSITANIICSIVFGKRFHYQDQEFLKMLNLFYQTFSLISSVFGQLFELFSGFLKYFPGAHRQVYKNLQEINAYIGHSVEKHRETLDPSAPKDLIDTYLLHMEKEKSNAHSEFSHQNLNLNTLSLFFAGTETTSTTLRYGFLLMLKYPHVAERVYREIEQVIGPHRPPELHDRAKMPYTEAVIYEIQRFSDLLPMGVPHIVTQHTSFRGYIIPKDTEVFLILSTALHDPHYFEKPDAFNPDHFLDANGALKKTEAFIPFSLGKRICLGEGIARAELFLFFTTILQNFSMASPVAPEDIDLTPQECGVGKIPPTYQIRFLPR
# Procedure: (§1) This assay was performed in a 96-well plate by adding 50 μL of 500 μg/L of metrafenone chemical standard to wells in duplicate, previously prepared in assay buffer with 5% acetonitrile. CYP2B11 enzyme mixture consisted of 5 pmol/mL Dog CYP2B11 bactosomes (Cypex Limited) in the assay buffer: 75 mM potassium phosphate supplemented with 5 mM MgCl2, pH=8.0, containing 333 mM Glucose-6-phosphate and 30 U/mL Glucose-6-phosphate dehydrogenase. CYP2B6 enzyme mixture consisted of 2.5 pmol/ml of Vivid® Human CYP2B6 baculosomes (Thermofisher Scientific) in the assay buffer: 75 mM potassium phosphate, pH=8.0, containing 333 mM Glucose-6-phosphate and 30 U/mL Glucose-6-phosphate dehydrogenase.
# (§2) After preparation, 50 μL of each enzyme mixture were added to each plate and incubated for 10 minutes at 37° C. After incubation, 10 μL of a substrate mixture containing 30 μM NADP^+ and 3 μM BOMCC in the phosphate buffer was added to the wells. The plate was incubated for 60 minutes at 37° C., and the fluorescence was monitored using 410/460 nm as excitation and emission wavelengths, respectively. A blank sample containing buffer solution was measured in same conditions and used to calculate the inhibition percentage of the activity of the enzymes in presence of the pesticide metrafenone.
# [7] = target: T4, Dog CYP2B11 (Canis lupus familiaris, UniProt P24460); assay: Metrafenone inhibition assay on CYP2B11 (Example 5); assay type: biochemical; conditions: 500 μg/L metrafenone; CYP2B11 5 pmol/mL; BOMCC 3 μM
# T4 construct: purchased Cypex Limited; host or cells: bactosomes (bacterial membranes; E. coli by own knowledge)
# T4 sequence (P24460 1-494): T1 sequence (P24460 1-494)
# Procedure: as §1, §2
smiles,measurement,setting,value
N#Cc1c(Cl)c(Cl)c(Cl)c(C#N)c1Cl [Chlorothalonil],I(%),[1],62.3%
CCOP(=S)(OCC)Oc1nc(Cl)c(Cl)cc1Cl [Chlorpyrifos-ethyl],I(%),[1],94.2%
same,I (%) at 200 μg/L,[2],26.8%
same,I (%) at 400 μg/L,[2],46.8%
COP(=S)(OC)Oc1nc(Cl)c(Cl)cc1Cl [Chlorpyrifos-methyl],I(%),[1],96.0%
same,I (%) at 200 μg/L,[2],49.5%
same,I (%) at 400 μg/L,[2],77.9%
same,Average I (%),[3],46.8%
CC1(C)C(C=C(Cl)Cl)C1C(=O)OC(C#N)c1cccc(Oc2ccccc2)c1 (stereo not drawn) [Cypermethrin],I(%),[1],17.5%
Clc1ccc(C(c2ccc(Cl)cc2)C(Cl)(Cl)Cl)cc1 [DDT],I(%),[1],70.7%
CCOP(=S)(OCC)Oc1cc(C)nc(C(C)C)n1 [Diazinon],I(%),[1],84.1%
OC(c1ccc(Cl)cc1)(c1ccc(Cl)cc1)C(Cl)(Cl)Cl [Dicofol],I(%),[1],79.0%
same,I (%) at 200 μg/L,[2],19.0%
same,I (%) at 400 μg/L,[2],30.6%
same,I(%),"[4]; MOBFC 0.0 μM, MOFC 10.0 μM",72.9%
same,I(%),"[4]; MOBFC 2.0 μM, MOFC 8.0 μM",50.6%
same,I(%),"[4]; MOBFC 3.3 μM, MOFC 6.6 μM",37.4%
same,I(%),"[4]; MOBFC 5.0 μM, MOFC 5.0 μM",24.3%
same,I(%),"[4]; MOBFC 10.0 μM, MOFC 0.0 μM",16.8%
CC(C)NC(=O)N1CC(=O)N(c2cc(Cl)cc(Cl)c2)C1=O [Iprodione],I(%),[1],15.9%
CCCC(Cn1cncn1)c1ccc(Cl)cc1Cl (stereo not drawn) [Penconazole],I(%),[1],87.8%
CCCN(CCOc1c(Cl)cc(Cl)cc1Cl)C(=O)n1ccnc1 [Prochloraz],I(%),[1],94.6%
same,I (%) at 200 μg/L,[2],60.3%
same,I (%) at 400 μg/L,[2],72.0%
same,Average I (%),[3],54.2%
CC12CC1(C)C(=O)N(c1cc(Cl)cc(Cl)c1)C2=O (stereo not drawn) [Procymidone],I(%),[1],24.5%
Fc1ccc(Oc2ccnc3cc(Cl)cc(Cl)c23)cc1 [Quinoxyfen],I(%),[1],18.1%
CNC(=O)CSP(=S)(OC)OC [dimethoate],"inhibition at 60 min, 2 mg/L",[5],56.8%
COc1cc(C)c(C(=O)c2c(OC)ccc(Br)c2C)c(OC)c1OC [metrafenone],I(%),[6],0.0%
same,I(%),[7],35.2%
